Assay results taken from US9872875B2, “Component and method for treating viral disease” (Institut Pasteur of Shanghai, Chinese Academy of Sciences, priority 2012, dated 2018).
Read-outs that look alike come from different tables or passages of the source.

How the values were obtained:
P2X2 receptor = target: T1, P2X2 receptor (Homo sapiens, UniProt Q9UBL9); details: Table 8, antagonists; cited from earlier work
T1 sequence (Q9UBL9 1-471): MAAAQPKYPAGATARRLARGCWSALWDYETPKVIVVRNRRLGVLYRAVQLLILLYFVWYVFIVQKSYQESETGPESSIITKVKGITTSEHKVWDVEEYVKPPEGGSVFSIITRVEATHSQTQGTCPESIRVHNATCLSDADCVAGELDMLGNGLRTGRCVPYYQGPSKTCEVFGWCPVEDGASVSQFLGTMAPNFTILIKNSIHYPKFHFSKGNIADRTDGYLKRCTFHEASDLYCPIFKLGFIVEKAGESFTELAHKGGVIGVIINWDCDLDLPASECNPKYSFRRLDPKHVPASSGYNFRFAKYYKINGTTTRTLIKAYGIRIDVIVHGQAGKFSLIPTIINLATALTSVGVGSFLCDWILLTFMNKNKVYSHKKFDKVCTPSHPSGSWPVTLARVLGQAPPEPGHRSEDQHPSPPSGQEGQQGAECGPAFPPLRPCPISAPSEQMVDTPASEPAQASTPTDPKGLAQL

P2X7 receptor = target: T2, P2X7 receptor (Homo sapiens, UniProt Q99572); details: Table 8, antagonists; cited from earlier work
T2 sequence (Q99572 1-595): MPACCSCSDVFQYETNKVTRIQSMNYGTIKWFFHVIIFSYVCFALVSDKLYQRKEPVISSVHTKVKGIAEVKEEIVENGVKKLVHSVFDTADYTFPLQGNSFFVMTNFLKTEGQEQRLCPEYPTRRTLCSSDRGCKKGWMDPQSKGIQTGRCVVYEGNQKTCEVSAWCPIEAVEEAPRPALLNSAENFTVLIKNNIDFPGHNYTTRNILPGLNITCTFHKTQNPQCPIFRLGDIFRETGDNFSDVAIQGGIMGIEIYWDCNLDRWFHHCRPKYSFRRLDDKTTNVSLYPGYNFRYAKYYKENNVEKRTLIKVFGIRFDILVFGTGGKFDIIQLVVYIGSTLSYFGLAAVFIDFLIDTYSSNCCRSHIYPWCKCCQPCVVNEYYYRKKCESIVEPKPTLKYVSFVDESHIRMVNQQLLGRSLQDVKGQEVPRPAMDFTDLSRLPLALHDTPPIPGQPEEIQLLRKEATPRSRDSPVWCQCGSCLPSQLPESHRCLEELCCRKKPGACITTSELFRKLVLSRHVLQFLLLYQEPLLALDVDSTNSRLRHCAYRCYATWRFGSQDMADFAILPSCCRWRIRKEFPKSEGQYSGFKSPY

P2X5 receptor = P2X5 receptor (Homo sapiens, UniProt Q93086); details: Table 8, antagonists; cited from earlier work
P2X3 receptor = target: T3, P2X3 receptor (Homo sapiens, UniProt P56373); details: cited from earlier work
T3 sequence (P56373 1-397): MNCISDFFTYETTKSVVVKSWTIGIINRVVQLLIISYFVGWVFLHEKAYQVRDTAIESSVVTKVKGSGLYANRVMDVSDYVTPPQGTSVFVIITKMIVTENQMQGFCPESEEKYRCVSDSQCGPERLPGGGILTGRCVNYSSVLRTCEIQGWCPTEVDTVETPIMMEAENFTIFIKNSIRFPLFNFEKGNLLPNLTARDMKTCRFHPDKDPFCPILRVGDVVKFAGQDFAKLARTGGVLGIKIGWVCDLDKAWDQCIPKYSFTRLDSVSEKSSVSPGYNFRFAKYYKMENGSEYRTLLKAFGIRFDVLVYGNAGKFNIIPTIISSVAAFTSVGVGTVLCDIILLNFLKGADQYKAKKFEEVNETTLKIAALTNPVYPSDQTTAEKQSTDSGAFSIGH

EV71 [1] = assay: Effects of other antagonists and agonists on EV71 (Table 9); format: cell-based, Enterovirus 71; set-up: key: “NO” indicates there is negative
EV71 [2] = assay: Inhibition of EV71 replication in RD cells at 0.1, 1, 10 and 100 μM (CPE, crystal violet); format: cell-based, Enterovirus 71
Experimental: Inhibitory effect of each P2X receptor antagonists and agonists on EV71 replication was measured at 0.1, 1, 10, and 100 μM. Specific procedures refer to “1” of Example 1. after infection, however, cells need to be incubated for 3˜4 days, stained with crystal violet, and observed under optical microscope to determine whether or not CPE (cytopathic effect) was present. In addition, the effect of compounds at each concentration on cytotoxicity to RD cells was determined. After culturing RD cells in various concentrations of compounds for 3˜4 days, stained with crystal violet, and observed under optical microscope to observe whether or not cell layer was damaged. Compounds capable of protecting cells from infection without damage of healthy cell layer can inhibit EV71 replication in RD cells.

P2X1 receptor = target: T4, P2X1 receptor (Homo sapiens, UniProt P51575); details: cited from earlier work
T4 sequence (P51575 1-399): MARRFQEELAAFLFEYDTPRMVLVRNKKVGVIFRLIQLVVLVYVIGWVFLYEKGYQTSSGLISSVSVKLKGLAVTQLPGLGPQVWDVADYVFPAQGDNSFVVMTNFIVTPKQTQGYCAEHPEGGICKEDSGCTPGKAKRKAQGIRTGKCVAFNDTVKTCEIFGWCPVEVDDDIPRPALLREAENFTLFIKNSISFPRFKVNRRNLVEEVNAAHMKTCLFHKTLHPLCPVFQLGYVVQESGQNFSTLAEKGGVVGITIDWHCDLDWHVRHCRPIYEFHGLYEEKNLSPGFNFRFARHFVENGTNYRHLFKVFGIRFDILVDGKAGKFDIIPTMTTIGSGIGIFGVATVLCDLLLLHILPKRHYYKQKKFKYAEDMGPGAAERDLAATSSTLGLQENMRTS

P2X2/3 = P2X2/3 (Homo sapiens, UniProt P56373+Q9UBL9); details: Table 9, antagonists; cited from earlier work
P2Y1 = P2Y1 (Homo sapiens, UniProt P47900); details: Table 9, antagonists; cell names P2Y1; cited from earlier work
P2Y1, sequence (P47900 whole entry, species assumed): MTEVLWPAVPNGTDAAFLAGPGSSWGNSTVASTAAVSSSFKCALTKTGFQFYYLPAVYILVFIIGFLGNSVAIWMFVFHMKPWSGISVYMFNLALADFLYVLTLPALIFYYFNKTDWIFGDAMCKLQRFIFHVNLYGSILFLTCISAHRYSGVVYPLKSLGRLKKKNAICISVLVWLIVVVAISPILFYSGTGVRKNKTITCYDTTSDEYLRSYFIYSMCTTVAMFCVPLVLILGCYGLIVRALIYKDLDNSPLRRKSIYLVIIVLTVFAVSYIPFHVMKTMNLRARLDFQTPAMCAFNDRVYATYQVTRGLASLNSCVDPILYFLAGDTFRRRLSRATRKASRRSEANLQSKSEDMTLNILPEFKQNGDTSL

P2X5 receptor, sequence (Q93086 whole entry): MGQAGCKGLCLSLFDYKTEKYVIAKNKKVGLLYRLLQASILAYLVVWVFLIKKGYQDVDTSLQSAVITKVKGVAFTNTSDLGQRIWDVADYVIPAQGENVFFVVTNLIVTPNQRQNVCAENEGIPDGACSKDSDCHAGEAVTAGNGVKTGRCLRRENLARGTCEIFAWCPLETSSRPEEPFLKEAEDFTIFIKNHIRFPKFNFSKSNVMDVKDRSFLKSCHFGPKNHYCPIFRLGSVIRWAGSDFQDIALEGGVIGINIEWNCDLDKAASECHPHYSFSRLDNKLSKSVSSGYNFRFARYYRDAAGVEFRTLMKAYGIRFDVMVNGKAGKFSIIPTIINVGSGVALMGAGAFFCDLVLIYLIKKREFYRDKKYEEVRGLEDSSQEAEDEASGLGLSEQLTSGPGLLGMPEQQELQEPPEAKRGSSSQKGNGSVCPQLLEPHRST

Compound | P2X receptors 2 (P2X2 receptor) | P2X receptors 7 (P2X7 receptor) | P2X receptors 5 (P2X5 receptor) | P2X receptors 3 (P2X3 receptor; Table 8, antagonists) | P2X receptors 3 (P2X3 receptor; Table 9, antagonists) | EV71 Log10 reduction (EV71 [1]) | inhibition of EV71 replication (statement in words) (EV71 [2]) | Inhibition of EV71 replication (EV71 [2]; Table 8, antagonists) | P2X receptors 1 (P2X1 receptor; Table 8, antagonists) | P2X receptors 1 (P2X1 receptor; Table 9, antagonists) | Heteromultimer (P2X2/3) | P2Y (P2Y1)
trinitrophenol-ATP [TNP-ATP] | + (+: inhibitory concentration >300 nM) | + (+: inhibitory concentration >300 nM) | + (+: inhibitory concentration >300 nM) | +++ (+++: inhibitory concentration <10 nM) | ✓ ✓ ✓ (✓ ✓ ✓ activating concentration <10 nM) | NO | can also inhibit EV71 replication | + (+: inhibitory concentration >300 nM) | +++ (+++: inhibitory concentration <10 nM) | ✓ ✓ ✓ (✓ ✓ ✓ activating concentration <10 nM) | ✓ ✓ ✓ (✓ ✓ ✓ activating concentration <10 nM) | 
CNc1ncnc2c1ncn2[C@H]1C[C@H](OP(=O)(O)O)[C@@H](COP(=O)(O)O)O1 [MRS 2179] |  |  |  |  | ✓ (✓ activating concentration >300 nM) | NO |  |  |  | ✓ (✓ activating concentration >300 nM) |  | ✓ ✓ P2Y1 (✓ ✓ activating concentration 10 nM-300 nM)
